Measurements from patent publication US12186374B2 (Sanofi-Aventis Deutschland GmbH, priority 2014, dated 2025).

Experiments:
[1] = test system: patients with Type 2 diabetes mellitus (T2DM); assay: Fasting plasma glucose change from baseline to Week 30 (Example 2); assay type: in vivo, human
Description: (§1) FPG is measured at a central laboratory. At V5 and V21, FPG will be part of the standardized meal test.
Similar MMRM method or ANCOVA was applied on continuous secondary efficacy endpoints and Cochran-Mantei-Haenszel method stratified by randomization strata was applied on categorical efficacy endpoints.

patients with T2DM = assay: Fasting plasma glucose change from baseline to Week 30 (Example 3); assay type: in vivo, human
Description: as §1
Similar MMRM method or analysis of covariance (ANCOVA) was applied on continuous secondary efficacy endpoints and the Cochran-Mantei-Haenszel method stratified by randomization strata was applied for categorical efficacy endpoints.

Substance: Gly(A21)-Arg(B31)-Arg(B32)-human insulin [Insulin Glargine]
- FPG, LS mean change from baseline to Week 30 ([1]; Example 2): -3.27 mmol/L
- Fasting plasma glucose, change from baseline to Week 30, LS Mean (SE) ([1]; MMRM, mITT population): −3.27 (0.091) mmol/L
- Fasting plasma glucose, Week 30, Mean (SD) ([1]; mITT population): 6.53 (1.76) mmol/L
- Fasting plasma glucose, Week 30, Median ([1]; mITT population): 6.20 mmol/L
- FPG, LS mean change from baseline to Week 30 (patients with T2DM; Example 3): -0.46 mmol/L
- Fasting plasma glucose change from baseline to Week 30, LS Mean (patients with T2DM; MMRM, mITT population): -0.46 mmol/L
- Fasting plasma glucose at Week 30, Mean (patients with T2DM; mITT population): 6.69 mmol/L
- Fasting plasma glucose at Week 30, Median (patients with T2DM; mITT population): 6.30 mmol/L
